Measured values published in PubChem BioAssay (NCI).
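Test compounds were applied to cells in 96-well plates for 48 hours at 5 doses. At the GI50, growth is halved. TGI: total growth inhibition.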

system: OVCAR-4 ovarian; assay: inhibition of tumour cell growth, NCI panel, 48 h

| SMILES | GI50 | TGI |
| --- | --- | --- |
| COc1ccc(/C=C/c2c(C(=O)/C=C/c3ccccc3)c(C)nc3ccccc23)cc1 | 2270 nM | 6.85 µM |

system: HOP-92 NSCLC; assay: inhibition of tumour cell growth, NCI panel, 48 h

| SMILES | GI50 | TGI |
| --- | --- | --- |
| C=C(C)[C@@H]1CC[C@]2(CO)CC[C@]3(C)[C@H](CC[C@@H]4[C@@]5(C)C=C(C#N)C(=O)C(C)(C)[C@@H]5CC[C@]43C)[C@@H]12 | 2220 nM | 5.15 µM |
| S=c1ssc(N2CCOCC2)c1Cl | 78300 nM | > 100 µM |
| COc1ccc(/C=C/c2c(C(=O)/C=C/c3ccccc3)c(C)nc3ccccc23)cc1 | 1400 nM | 3.84 µM |

system: OVCAR-3 ovarian; assay: inhibition of tumour cell growth, NCI panel, 48 h

| SMILES | TGI | GI50 |
| --- | --- | --- |
| Oc1c(N2CCOCC2)cc(-c2cc(N3CCOCC3)c(O)c3ccccc23)c2ccccc12 | 15.6 µM | – |
| C=C(C)[C@@H]1CC[C@]2(CO)CC[C@]3(C)[C@H](CC[C@@H]4[C@@]5(C)C=C(C#N)C(=O)C(C)(C)[C@@H]5CC[C@]43C)[C@@H]12 | 2.73 µM | 1270 nM |
| S=c1ssc(N2CCOCC2)c1Cl | > 100 µM | 39300 nM |
| COc1ccc(/C=C/c2c(C(=O)/C=C/c3ccccc3)c(C)nc3ccccc23)cc1 | 3.12 µM | 1650 nM |

system: IGROV1 ovarian; assay: inhibition of tumour cell growth, NCI panel, 48 h

| SMILES | TGI | GI50 |
| --- | --- | --- |
| Oc1c(N2CCOCC2)cc(-c2cc(N3CCOCC3)c(O)c3ccccc23)c2ccccc12 | 7.16 µM | – |
| C=C(C)[C@@H]1CC[C@]2(CO)CC[C@]3(C)[C@H](CC[C@@H]4[C@@]5(C)C=C(C#N)C(=O)C(C)(C)[C@@H]5CC[C@]43C)[C@@H]12 | 4.65 µM | 684 nM |
| COc1ccc(/C=C/c2c(C(=O)/C=C/c3ccccc3)c(C)nc3ccccc23)cc1 | 5.36 µM | 1570 nM |

system: SF-295 CNS; assay: inhibition of tumour cell growth, NCI panel, 48 h

| SMILES | GI50 | TGI |
| --- | --- | --- |
| C=C(C)[C@@H]1CC[C@]2(CO)CC[C@]3(C)[C@H](CC[C@@H]4[C@@]5(C)C=C(C#N)C(=O)C(C)(C)[C@@H]5CC[C@]43C)[C@@H]12 | 1730 nM | 3.96 µM |
| S=c1ssc(N2CCOCC2)c1Cl | 25800 nM | > 100 µM |
| COc1ccc(/C=C/c2c(C(=O)/C=C/c3ccccc3)c(C)nc3ccccc23)cc1 | 2620 nM | 7.46 µM |

system: HOP-62 NSCLC; assay: inhibition of tumour cell growth, NCI panel, 48 h

| SMILES | GI50 | TGI |
| --- | --- | --- |
| C=C(C)[C@@H]1CC[C@]2(CO)CC[C@]3(C)[C@H](CC[C@@H]4[C@@]5(C)C=C(C#N)C(=O)C(C)(C)[C@@H]5CC[C@]43C)[C@@H]12 | 1740 nM | 3.85 µM |
| S=c1ssc(N2CCOCC2)c1Cl | > 100000 nM | > 100 µM |
| COc1ccc(/C=C/c2c(C(=O)/C=C/c3ccccc3)c(C)nc3ccccc23)cc1 | 1890 nM | 3.58 µM |

system: MALME-3M melanoma; assay: inhibition of tumour cell growth, NCI panel, 48 h

| SMILES | GI50 | TGI |
| --- | --- | --- |
| C=C(C)[C@@H]1CC[C@]2(CO)CC[C@]3(C)[C@H](CC[C@@H]4[C@@]5(C)C=C(C#N)C(=O)C(C)(C)[C@@H]5CC[C@]43C)[C@@H]12 | 1400 nM | 3.82 µM |
| COc1ccc(/C=C/c2c(C(=O)/C=C/c3ccccc3)c(C)nc3ccccc23)cc1 | 1740 nM | 3.2 µM |

system: NCI-H460 lung; assay: inhibition of tumour cell growth, NCI panel, 48 h

| SMILES | TGI | GI50 |
| --- | --- | --- |
| Oc1c(N2CCOCC2)cc(-c2cc(N3CCOCC3)c(O)c3ccccc23)c2ccccc12 | 11.4 µM | – |
| C=C(C)[C@@H]1CC[C@]2(CO)CC[C@]3(C)[C@H](CC[C@@H]4[C@@]5(C)C=C(C#N)C(=O)C(C)(C)[C@@H]5CC[C@]43C)[C@@H]12 | 5.17 µM | 1.37 µM |
| S=c1ssc(N2CCOCC2)c1Cl | 67 µM | 21.5 µM |

system: CAKI-1 renal; assay: inhibition of tumour cell growth, NCI panel, 48 h

| SMILES | TGI | GI50 |
| --- | --- | --- |
| Oc1c(N2CCOCC2)cc(-c2cc(N3CCOCC3)c(O)c3ccccc23)c2ccccc12 | 13.8 µM | – |
| C=C(C)[C@@H]1CC[C@]2(CO)CC[C@]3(C)[C@H](CC[C@@H]4[C@@]5(C)C=C(C#N)C(=O)C(C)(C)[C@@H]5CC[C@]43C)[C@@H]12 | 14.4 µM | 2820 nM |
| S=c1ssc(N2CCOCC2)c1Cl | > 100 µM | > 100000 nM |
| COc1ccc(/C=C/c2c(C(=O)/C=C/c3ccccc3)c(C)nc3ccccc23)cc1 | 2.82 µM | 1410 nM |

system: HCT-116 colon; assay: inhibition of tumour cell growth, NCI panel, 48 h

| SMILES | GI50 | TGI |
| --- | --- | --- |
| COc1ccc(/C=C/c2c(C(=O)/C=C/c3ccccc3)c(C)nc3ccccc23)cc1 | 1030 nM | 2600 nM |

system: OVCAR-5 ovarian; assay: inhibition of tumour cell growth, NCI panel, 48 h

| SMILES | TGI | GI50 |
| --- | --- | --- |
| Oc1c(N2CCOCC2)cc(-c2cc(N3CCOCC3)c(O)c3ccccc23)c2ccccc12 | 7.25 µM | – |
| C=C(C)[C@@H]1CC[C@]2(CO)CC[C@]3(C)[C@H](CC[C@@H]4[C@@]5(C)C=C(C#N)C(=O)C(C)(C)[C@@H]5CC[C@]43C)[C@@H]12 | 5.75 µM | 2130 nM |
| S=c1ssc(N2CCOCC2)c1Cl | > 100 µM | > 100000 nM |
| COc1ccc(/C=C/c2c(C(=O)/C=C/c3ccccc3)c(C)nc3ccccc23)cc1 | 3.65 µM | 1910 nM |

system: HT29 colon; assay: inhibition of tumour cell growth, NCI panel, 48 h

| SMILES | TGI | GI50 |
| --- | --- | --- |
| Oc1c(N2CCOCC2)cc(-c2cc(N3CCOCC3)c(O)c3ccccc23)c2ccccc12 | 5.26 µM | – |
| C=C(C)[C@@H]1CC[C@]2(CO)CC[C@]3(C)[C@H](CC[C@@H]4[C@@]5(C)C=C(C#N)C(=O)C(C)(C)[C@@H]5CC[C@]43C)[C@@H]12 | 4.76 µM | 1160 nM |
| S=c1ssc(N2CCOCC2)c1Cl | > 100 µM | 47400 nM |
| COc1ccc(/C=C/c2c(C(=O)/C=C/c3ccccc3)c(C)nc3ccccc23)cc1 | > 100 µM | 2400 nM |

system: T-47D breast; assay: inhibition of tumour cell growth, NCI panel, 48 h

| SMILES | TGI | GI50 |
| --- | --- | --- |
| Oc1c(N2CCOCC2)cc(-c2cc(N3CCOCC3)c(O)c3ccccc23)c2ccccc12 | 62.1 µM | – |
| C=C(C)[C@@H]1CC[C@]2(CO)CC[C@]3(C)[C@H](CC[C@@H]4[C@@]5(C)C=C(C#N)C(=O)C(C)(C)[C@@H]5CC[C@]43C)[C@@H]12 | 5.79 µM | 1120 nM |
| S=c1ssc(N2CCOCC2)c1Cl | > 100 µM | > 100000 nM |
| COc1ccc(/C=C/c2c(C(=O)/C=C/c3ccccc3)c(C)nc3ccccc23)cc1 | 5.11 µM | 1770 nM |

system: OVCAR-8 ovarian; assay: inhibition of tumour cell growth, NCI panel, 48 h

| SMILES | GI50 | TGI |
| --- | --- | --- |
| C=C(C)[C@@H]1CC[C@]2(CO)CC[C@]3(C)[C@H](CC[C@@H]4[C@@]5(C)C=C(C#N)C(=O)C(C)(C)[C@@H]5CC[C@]43C)[C@@H]12 | 1880 nM | 5.24 µM |
| S=c1ssc(N2CCOCC2)c1Cl | > 100000 nM | > 100 µM |
| COc1ccc(/C=C/c2c(C(=O)/C=C/c3ccccc3)c(C)nc3ccccc23)cc1 | 1750 nM | 4.1 µM |

system: SNB-75 CNS; assay: inhibition of tumour cell growth, NCI panel, 48 h

| SMILES | GI50 | TGI |
| --- | --- | --- |
| C=C(C)[C@@H]1CC[C@]2(CO)CC[C@]3(C)[C@H](CC[C@@H]4[C@@]5(C)C=C(C#N)C(=O)C(C)(C)[C@@H]5CC[C@]43C)[C@@H]12 | 1040 nM | 3.39 µM |
| COc1ccc(/C=C/c2c(C(=O)/C=C/c3ccccc3)c(C)nc3ccccc23)cc1 | 1460 nM | 4.44 µM |

system: SF-539 CNS; assay: inhibition of tumour cell growth, NCI panel, 48 h

| SMILES | GI50 | TGI |
| --- | --- | --- |
| C=C(C)[C@@H]1CC[C@]2(CO)CC[C@]3(C)[C@H](CC[C@@H]4[C@@]5(C)C=C(C#N)C(=O)C(C)(C)[C@@H]5CC[C@]43C)[C@@H]12 | 2610 nM | 8.34 µM |
| S=c1ssc(N2CCOCC2)c1Cl | 31400 nM | 76.3 µM |
| COc1ccc(/C=C/c2c(C(=O)/C=C/c3ccccc3)c(C)nc3ccccc23)cc1 | 1760 nM | 3.2 µM |
